# Test results from patent US20080194666A1, “Combination Treatment Methods” (MEDICAL RESEARCH COUNCIL, priority 2005, published 2008).
# System: cabbage root fly
# Assay: Swede field trials in Norway, cabbage root fly damage
# Type: in vivo
# Method: An extensive program of non-public field trials, which included five crops of swede were carried out. The field trials design was based around multiple applications of either ECOguard® liquid (garlic juice concentrate) or granules (wood flour granules impregnated with the garlic juice concentrate) and in four out of the five swede trials was referenced against Dimethoate as a standard.
smiles,measurement,setting,value
CNC(=O)CSP(=S)(OC)OC [Dimethoate],mean saleable yield (cat 1 + 2),Ga-Fa,7.27 kg/sample
same,mean saleable yield (cat 1 + 2),Mid-Troms,5.84 kg/sample
same,mean saleable yield (cat 1 + 2),Sor Ost,22.16 kg/sample
same,mean saleable yield (cat 1 + 2),Toten,11.95 kg/sample
same,"Difference of Means, trt=1 (control) subtracted",in vivo,−0.3100
same,cabbage root fly damage versus control,in vivo,significantly reduced damage
same,"root damage index (RDI), % Change",in vivo,−5.8%
same,"root damage index (RDI), Mean",in vivo,43.90
same,"mean saleable yield (cat 1 + 2), Mean",mean of four sites,11.95 kg/sample
same,"mean saleable yield, % Change",mean of four sites versus control,+8%
